Source: patent US20150119395A1, “NOVEL TRIAZOLE COMPOUNDS THAT MODULATE HSP90 ACTIVITY” (SYNTA PHARMACEUTICALS CORP., priority 2012, published 2015)

System: Her2
Assay: Her2 degradation in BT-474 cells, in-cell western (ICW), Method 2
Assay type: cell-based, human
Settings: for IC50: BT-474 cells, 24 hours, Her2 signal normalized to DRAQ5, read-out: Her2 IC50 range of compounds of the invention for inhibition of Hsp90; for EC50: Table 3, read-out: EC50 range for Her2 degradation
Method: Human BT474 (HTB-20), SK-BR-3 (HTB-30) and MCF-7 breast carcinoma cells (HTB-22) from American Type Culture Collection, VA, USA were grown in Dulbecco's modified Eagle's medium with 4 mM L-glutamine and antibiotics (100 IU/ml penicillin and 100 μg/ml streptomycine; GibcoBRL). To obtain exponential cell growth, cells were trypsinized, counted and seeded at a cell density of 0.5×10^6 cells/ml regularly, every 3 days. All experiments were performed on day 1 after cell passage.
BT-474 cells were plated in the interior 60 wells of a 96 well black clear bottom plate (20,000 cells/well) in DMEM medium, with DMEM media in the surrounding 36 wells, and incubated at 37° C. with 5% CO2 overnight. On the second day, concentration response curve source plates were produced (10 point, 3-fold dilution of compounds in DMSO) followed by a 1:30 dilution in an intermediate dilution plate containing DMEM. Compound was transferred from the intermediate plate to the cell plate at a dilution of 1:10. The cells were incubated at 37° C. with 5% CO2 for 24 hours.
Cells were fixed in 4% phosphate buffered paraformaldehyde for 30 minutes at room temperature and then permeabilized by washing five times with 0.1% Triton X-100 in PBS for 5 minutes at room temperature on a shaker. Cells were blocked with Odyssey Blocking Buffer (LI-COR, #927-40000) on a shaker at room temperature for 1.5 hours followed by incubation with Her2 antibody (CST, #2165) diluted 1:400 in blocking buffer overnight on a shaker at 4° C. Cells were washed five times with 0.1% Tween-20 in PBS for 5 minutes at room temperature on a shaker and incubated with fluorescently labeled secondary antibody (LI-COR, #926-32211) diluted 1:1000 in blocking buffer, and DRAQ5 nuclear stain (Biostatus Limited, #DRAQ5) diluted 1:10,000, at room temperature on a shaker for 1 hour. Cells were washed 5 times with 0.1% Tween-20 in PBS for 5 minutes at room temperature on a shaker and imaged on a LI-COR Odyssey imaging station. The raw data was normalized to DRAQ5 and the Her2 EC50 were calculated using XLfit.

| SMILES | IC50 [nM] | EC50 [nM] |
| --- | --- | --- |
| CC(C)c1cc(-c2nnc(-c3cc(C(C)C)c(O)cc3O)n2-c2ccc(N3CCN(C)CC3)cc2)c(O)cc1O [Compound 1, 6,6′-(4-(4-(4-methylpiperazin-1-yl)phenyl)-4H-1,2,4-triazole-3,5-diyl)bis(4-isopropylbenzene-1,3-diol)] | 3500 |  |
| CC(C)c1cc(-c2nnc(-c3ccncc3)n2-c2ccc(N3CCN(C)CC3)cc2)c(O)cc1O [Compound 2, 4-isopropyl-6-(4-(4-(4-methylpiperazin-1-yl)phenyl)-5-(pyridin-4-yl)-4H-1,2,4-triazol-3-yl)benzene-1,3-diol] | 2280 |  |
| CC(C)c1cc(-c2nnc(-c3ccccc3O)n2-c2ccc(N3CCN(C)CC3)cc2)c(O)cc1O [Compound 3, 4-(5-(2-hydroxyphenyl)-4-(4-(4-methylpiperazin-1-yl)phenyl)-4H-1,2,4-triazol-3-yl)-6-isopropylbenzene-1,3-diol] | 5160 |  |
| CC(C)c1cc(-c2nnc(-c3cccc(O)c3)n2-c2ccc(N3CCN(C)CC3)cc2)c(O)cc1O [Compound 4, 4-(5-(3-hydroxyphenyl)-4-(4-(4-methylpiperazin-1-yl)phenyl)-4H-1,2,4-triazol-3-yl)-6-isopropylbenzene-1,3-diol] | 543 |  |
| CC(C)c1cc(-c2nnc(-c3ccccn3)n2-c2ccc(N3CCN(C)CC3)cc2)c(O)cc1O [Compound 5, 4-isopropyl-6-(4-(4-(4-methylpiperazin-1-yl)phenyl)-5-(pyridin-2-yl)-4H-1,2,4-triazol-3-yl)benzene-1,3-diol] | 543 |  |
| CC(C)c1cc(-c2nnc(-c3cnccn3)n2-c2ccc(N3CCN(C)CC3)cc2)c(O)cc1O [Compound 6, 4-isopropyl-6-(4-(4-(4-methylpiperazin-1-yl)phenyl)-5-(pyrazin-2-yl)-4H-1,2,4-triazol-3-yl)benzene-1,3-diol] | 3400 |  |
| CC(C)c1cc(-c2nnc(-c3cccc(O)c3)n2-c2ccc(CN3CCN(C)CC3)cc2)c(O)cc1O [Compound 7, 4-(5-(3-hydroxyphenyl)-4-(4-((4-methylpiperazin-1-yl)methyl)phenyl)-4H-1,2,4-triazol-3-yl)-6-isopropylbenzene-1,3-diol] | 123 |  |
| CC(C)c1cc(-c2nnc(-c3cccc(O)c3)n2-c2ccc(N3CCOCC3)cc2)c(O)cc1O [Compound 8, 4-(5-(3-hydroxyphenyl)-4-(4-morpholinophenyl)-4H-1,2,4-triazol-3-yl)-6-isopropylbenzene-1,3-diol] | 143 |  |
| CC(C)c1cc(-c2nnc(-c3cccc(O)c3)n2-c2ccccc2)c(O)cc1O [Compound 9, 4-(5-(3-hydroxyphenyl)-4-phenyl-4H-1,2,4-triazol-3-yl)-6-isopropylbenzene-1,3-diol] |  | < 200 |
| CC(C)c1cc(-c2nnc(-c3cccc(O)c3)n2-c2ccc(CN3CCOCC3)cc2)c(O)cc1O [Compound 10, 4-(5-(3-hydroxyphenyl)-4-(4-(morpholinomethyl)phenyl)-4H-1,2,4-triazol-3-yl)-6-isopropylbenzene-1,3-diol] |  | 60 |
| CC(C)c1cc(-c2nnc(-c3cccc(O)c3)n2-c2cccnc2)c(O)cc1O [Compound 11, 4-(5-(3-hydroxyphenyl)-4-(pyridin-3-yl)-4H-1,2,4-triazol-3-yl)-6-isopropylbenzene-1,3-diol] |  | 300 |
| CC(C)c1cc(-c2nnc(-c3cccnc3)n2-c2cccnc2)c(O)cc1O [Compound 12, 4-(4,5-di(pyridin-3-yl)-4H-1,2,4-triazol-3-yl)-6-isopropylbenzene-1,3-diol] |  | 1000 |
| CC(C)c1cc(-c2nnc(-c3cccnc3)n2-c2ccc(CN3CCOCC3)cc2)c(O)cc1O [Compound 13, 4-isopropyl-6-(4-(4-(morpholinomethyl)phenyl)-5-(pyridin-3-yl)-4H-1,2,4-triazol-3-yl)benzene-1,3-diol] |  | 100 |
| CC(C)c1cc(-c2nnc(-c3cc4ccccc4[nH]3)n2-c2ccccc2)c(O)cc1O [Compound 14, 4-(5-(1H-indol-2-yl)-4-phenyl-4H-1,2,4-triazol-3-yl)-6-isopropylbenzene-1,3-diol] |  | 25 |
| CC(C)c1cc(-c2nnc(-c3cccnc3)n2-c2ccccc2)c(O)cc1O [Compound 15, 4-isopropyl-6-(4-phenyl-5-(pyridin-3-yl)-4H-1,2,4-triazol-3-yl)benzene-1,3-diol] |  | < 200 |
| CC(C)c1cc(-c2nnc(-c3cccnc3)n2-c2ccc(CN3CCN(C)CC3)cc2)c(O)cc1O [Compound 16, 4-isopropyl-6-(4-(4-((4-methylpiperazin-1-yl)methyl)phenyl)-5-(pyridin-3-yl)-4H-1,2,4-triazol-3-yl)benzene-1,3-diol] |  | 18 |
| CC(C)c1cc(-c2nnc(-c3cccnc3)n2-c2ccc(N3CCOCC3)cc2)c(O)cc1O [Compound 17, 4-isopropyl-6-(4-(4-morpholinophenyl)-5-(pyridin-3-yl)-4H-1,2,4-triazol-3-yl)benzene-1,3-diol] |  | 38 |
| COc1cc(O)c(-c2nnc(-c3cccnc3)n2-c2ccc(CN3CCOCC3)cc2Cl)cc1C(C)C [Compound 18, 2-(4-(2-chloro-4-(morpholinomethyl)phenyl)-5-(pyridin-3-yl)-4H-1,2,4-triazol-3-yl)-4-isopropyl-5-methoxyphenol] |  | 5000 |
| CCN1CCN(Cc2ccc(-n3c(-c4cccnc4)nnc3-c3cc(C(C)C)c(O)cc3O)c(Cl)c2)CC1 [Compound 19, 4-(4-(2-chloro-4-((4-ethylpiperazin-1-yl)methyl)phenyl)-5-(pyridin-3-yl)-4H-1,2,4-triazol-3-yl)-6-isopropylbenzene-1,3-diol] |  | 52 |
| COc1cc(O)c(-c2nnc(-c3cccnc3)n2-c2ccc(CN3CCN(C)CC3)cc2)cc1C(C)C [Compound 20, 4-isopropyl-5-methoxy-2-(4-(4-((4-methylpiperazin-1-yl)methyl)phenyl)-5-(pyridin-3-yl)-4H-1,2,4-triazol-3-yl)phenol] |  | 2090 |
| CC(C)c1cc(-c2ccc(-c3cccnc3)n2-c2ccc(N3CCOCC3)cc2)c(O)cc1O [Compound 21, 4-isopropyl-6-(1-(4-morpholinophenyl)-5-(pyridin-3-yl)-1H-pyrrol-2-yl)benzene-1,3-diol] |  | 40 |
| COc1ccc(-c2[nH]nc(-c3cc(C(C)C)c(O)cc3O)c2-c2ccc(OC)cc2)cc1 [Compound 22, 4-(4,5-bis(4-methoxyphenyl)-1H-pyrazol-3-yl)-6-isopropylbenzene-1,3-diol] |  | > 200 |
| COc1ccc(-c2cnc(-c3cc(C(C)C)c(O)cc3O)n2-c2ccc(N3CCOCC3)nc2)cc1 [Compound 23, 4-isopropyl-6-(5-(4-methoxyphenyl)-1-(6-morpholinopyridin-3-yl)-1H-imidazol-2-yl)benzene-1,3-diol] |  | < 200 |
| COc1ccc(-c2cnc(-c3cc(C(C)C)c(O)cc3O)n2-c2ccc(CN3CCN(C)CC3)cc2)cc1 [Compound 24, 4-isopropyl-6-(5-(4-methoxyphenyl)-1-(4-((4-methylpiperazin-1-yl)methyl)phenyl)-1H-imidazol-2-yl)benzene-1,3-diol] |  | < 200 |
